{"source": "patent US20240293312A1", "about": "“PHARMACEUTICAL COMPOSITIONS OF 3-(4-AMINO-1-OXO-1, 3 DIHYDRO-ISOINDOL-2-YL)-PIPERIDINE-2, 6-DIONE” (priority 2021, published 2024)", "origin": "cited, not measured here"}
{"compound": "Nc1cccc2c1CN(C1CCC(=O)NC1=O)C2=O", "note": "(stereo not shown) [Lenalidomide, 3-(4-amino-1-oxo-1,3-dihydro-2H-isoindol-2-yl) piperidine-2,6-dione]", "values": [{"measurement": "solubility (in words)", "result": "soluble in organic solvent/water mixtures, and buffered aqueous solvents"}]}
